Results reported in PubChem BioAssay (NCI).
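1) Cells in 96-well plates. 2) Compound, 48 h, 5 concentrations. 3) Linear interpolation between surrounding doses. 4) Unreached endpoint = highest concentration. GI50: concentration for 50% inhibition of growth. At the TGI there is no net growth.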

Columns and labels:
Test in all cases: NCI-60 cell line screen, 48 h
[1] = tested on: SNB-19 CNS
[2] = tested on: EKVX NSCLC
[3] = tested on: IGROV1 ovarian
[4] = tested on: NCI/ADR-RES ovarian
[5] = tested on: SK-MEL-2 melanoma
[6] = tested on: MCF7 breast
[7] = tested on: SN12C renal
[8] = tested on: HCT-15 colon
[9] = tested on: TK-10 renal
[10] = tested on: OVCAR-8 ovarian
[11] = tested on: CAKI-1 renal
[12] = tested on: HCT-116 colon
[13] = tested on: ACHN renal
[14] = tested on: SW-620 colon
[15] = tested on: UACC-257 melanoma
[16] = tested on: COLO 205 colon
[17] = tested on: SF-539 CNS
[18] = tested on: HOP-62 NSCLC
[19] = tested on: SR leukemia
[20] = tested on: SNB-75 CNS
[21] = tested on: T-47D breast
[22] = tested on: HL-60(TB) leukemia
[23] = tested on: BT-549 breast
[24] = tested on: 786-0 renal
[25] = tested on: M14 melanoma
[26] = tested on: NCI-H23 lung
[27] = tested on: NCI-H522 lung
[28] = tested on: SK-OV-3 ovarian
[29] = tested on: A498 renal
[30] = tested on: MDA-MB-435
[31] = tested on: LOX IMVI melanoma
[32] = tested on: OVCAR-4 ovarian
[33] = tested on: UACC-62 melanoma
[34] = tested on: RXF 393 renal
[35] = tested on: MOLT-4 leukemia
[36] = tested on: A549 NSCLC
[37] = tested on: SK-MEL-5 melanoma
[38] = tested on: MDA-MB-468 breast
[39] = tested on: K-562 leukemia
[40] = tested on: MALME-3M melanoma
[41] = tested on: DU-145 prostate
[42] = tested on: OVCAR-3 ovarian
[43] = tested on: OVCAR-5 ovarian
[44] = tested on: SF-295 CNS
[45] = tested on: U251 CNS
[46] = tested on: MDA-MB-231 breast
[47] = tested on: HS 578T breast
[48] = tested on: UO-31 renal
[49] = tested on: HCC-2998 colon
[50] = tested on: SK-MEL-28 melanoma
[51] = tested on: KM12 colon
[52] = tested on: HT29 colon
[53] = tested on: HOP-92 NSCLC
[54] = tested on: NCI-H460 lung
[55] = tested on: RPMI-8226 leukemia
[56] = tested on: CCRF-CEM leukemia
[57] = tested on: SF-268 CNS
[58] = tested on: PC-3 prostate
[59] = tested on: NCI-H226 lung

Compound: CC1=C(C=O)C2=C(C)C3(CC3)[C@@](C)(O)C(=O)C2=C1
- GI50 [1]: 342 nM
- TGI [1]: 1340 nM
- GI50 [2]: 244 nM
- TGI [2]: 737 nM
- GI50 [3]: 236 nM
- TGI [3]: 538 nM
- GI50 [4]: 321 nM
- TGI [4]: 1310 nM
- GI50 [5]: 348 nM
- TGI [5]: 1180 nM
- GI50 [6]: 181 nM
- TGI [6]: 576 nM
- GI50 [7]: 221 nM
- TGI [7]: 523 nM
- GI50 [8]: 180 nM
- TGI [8]: 370 nM
- GI50 [9]: 519 nM
- TGI [9]: 2320 nM
- GI50 [10]: 214 nM
- TGI [10]: 562 nM
- GI50 [11]: 306 nM
- TGI [11]: 1090 nM
- GI50 [12]: 161 nM
- TGI [12]: 317 nM
- GI50 [13]: 229 nM
- TGI [13]: 543 nM
- GI50 [14]: 255 nM
- TGI [14]: 694 nM
- GI50 [15]: 188 nM
- TGI [15]: 418 nM
- GI50 [16]: 226 nM
- TGI [16]: 459 nM
- GI50 [17]: 178 nM
- TGI [17]: 359 nM
- GI50 [18]: 216 nM
- TGI [18]: 518 nM
- GI50 [19]: 212 nM
- TGI [19]: 695 nM
- GI50 [20]: 176 nM
- TGI [20]: 547 nM
- GI50 [21]: 199 nM
- TGI [21]: 566 nM
- GI50 [22]: 227 nM
- TGI [22]: 703 nM
- GI50 [23]: 190 nM
- TGI [23]: 440 nM
- GI50 [24]: 209 nM
- TGI [24]: 491 nM
- GI50 [25]: 212 nM
- TGI [25]: 463 nM
- GI50 [26]: 180 nM
- TGI [26]: 361 nM
- GI50 [27]: 171 nM
- TGI [27]: 333 nM
- GI50 [28]: 678 nM
- TGI [28]: 1800 nM
- GI50 [29]: 996 nM
- TGI [29]: 2460 nM
- GI50 [30]: 213 nM
- TGI [30]: 495 nM
- GI50 [31]: 153 nM
- TGI [31]: 295 nM
- GI50 [32]: 407 nM
- TGI [32]: 3990 nM
- GI50 [33]: 179 nM
- TGI [33]: 372 nM
- GI50 [34]: 147 nM
- TGI [34]: 293 nM
- GI50 [35]: 218 nM
- TGI [35]: 977 nM
- GI50 [36]: 276 nM
- TGI [36]: 1010 nM
- GI50 [37]: 187 nM
- TGI [37]: 381 nM
- GI50 [38]: 159 nM
- TGI [38]: 344 nM
- GI50 [39]: 243 nM
- TGI [39]: 765 nM
- GI50 [40]: 180 nM
- TGI [40]: 353 nM
- GI50 [41]: 365 nM
- TGI [41]: 1310 nM
- GI50 [42]: 250 nM
- TGI [42]: 618 nM
- GI50 [43]: 223 nM
- TGI [43]: 533 nM
- GI50 [44]: 194 nM
- TGI [44]: 387 nM
- GI50 [45]: 170 nM
- TGI [45]: 341 nM
- GI50 [46]: 194 nM
- TGI [46]: 367 nM
- GI50 [47]: 259 nM
- TGI [47]: 799 nM
- GI50 [48]: 170 nM
- TGI [48]: 359 nM
- GI50 [49]: 179 nM
- TGI [49]: 338 nM
- GI50 [50]: 284 nM
- TGI [50]: 781 nM

Compound: O=C(Cn1c(/C=C/c2ccccc2)nc2ccccc2c1=O)Nc1ccc(Cl)cc1
- GI50 [1]: 32700 nM
- TGI [1]: > 100000 nM
- GI50 [2]: > 100000 nM
- TGI [2]: > 100000 nM
- GI50 [3]: 70100 nM
- TGI [3]: > 100000 nM
- GI50 [4]: 71400 nM
- TGI [4]: > 100000 nM
- GI50 [5]: > 100000 nM
- TGI [5]: > 100000 nM
- GI50 [6]: > 100000 nM
- TGI [6]: > 100000 nM
- GI50 [7]: 16700 nM
- TGI [7]: > 100000 nM
- GI50 [51]: > 100000 nM
- TGI [51]: > 100000 nM
- GI50 [52]: > 100000 nM
- TGI [52]: > 100000 nM
- GI50 [8]: > 100000 nM
- TGI [8]: > 100000 nM
- GI50 [9]: 21400 nM
- TGI [9]: 46000 nM
- GI50 [10]: > 100000 nM
- TGI [10]: > 100000 nM
- GI50 [11]: 69000 nM
- TGI [11]: > 100000 nM
- GI50 [12]: 46000 nM
- TGI [12]: > 100000 nM
- GI50 [13]: 16000 nM
- TGI [13]: 49600 nM
- GI50 [15]: > 100000 nM
- TGI [15]: > 100000 nM
- GI50 [16]: > 100000 nM
- TGI [16]: > 100000 nM
- GI50 [17]: 30900 nM
- TGI [17]: > 100000 nM
- GI50 [18]: 24700 nM
- TGI [18]: 80100 nM
- GI50 [19]: > 100000 nM
- TGI [19]: > 100000 nM
- GI50 [20]: 19400 nM
- TGI [20]: 53800 nM
- GI50 [53]: 11200 nM
- TGI [53]: 32200 nM
- GI50 [21]: 15800 nM
- TGI [21]: 47500 nM
- GI50 [22]: > 100000 nM
- TGI [22]: > 100000 nM
- GI50 [23]: > 100000 nM
- TGI [23]: > 100000 nM
- GI50 [24]: 18400 nM
- TGI [24]: 64800 nM
- GI50 [54]: 39600 nM
- TGI [54]: > 100000 nM
- GI50 [25]: > 100000 nM
- TGI [25]: > 100000 nM
- GI50 [26]: 34400 nM
- TGI [26]: > 100000 nM
- GI50 [27]: 83400 nM
- TGI [27]: > 100000 nM
- GI50 [28]: 24800 nM
- TGI [28]: 57400 nM
- GI50 [29]: 22200 nM
- TGI [29]: 40900 nM
- GI50 [30]: > 100000 nM
- TGI [30]: > 100000 nM
- GI50 [32]: 9540 nM
- TGI [32]: > 100000 nM
- GI50 [33]: > 100000 nM
- TGI [33]: > 100000 nM
- GI50 [34]: 14400 nM
- TGI [34]: 35300 nM
- GI50 [35]: > 100000 nM
- TGI [35]: > 100000 nM
- GI50 [36]: 87200 nM
- TGI [36]: > 100000 nM
- GI50 [37]: > 100000 nM
- TGI [37]: > 100000 nM
- GI50 [55]: > 100000 nM
- TGI [55]: > 100000 nM
- GI50 [56]: > 100000 nM
- TGI [56]: > 100000 nM
- GI50 [57]: > 100000 nM
- TGI [57]: > 100000 nM
- GI50 [38]: 29200 nM
- TGI [38]: > 100000 nM
- GI50 [39]: > 100000 nM
- TGI [39]: > 100000 nM
- GI50 [40]: 71300 nM
- TGI [40]: > 100000 nM
- GI50 [41]: > 100000 nM
- TGI [41]: > 100000 nM
- GI50 [42]: 60600 nM
- TGI [42]: > 100000 nM
- GI50 [43]: > 100000 nM
- TGI [43]: > 100000 nM
- GI50 [58]: > 100000 nM
- TGI [58]: > 100000 nM
- GI50 [44]: 26800 nM
- TGI [44]: > 100000 nM
- GI50 [59]: 23900 nM
- TGI [59]: > 100000 nM
- GI50 [45]: 13900 nM
- TGI [45]: > 100000 nM
- GI50 [48]: 21300 nM
- TGI [48]: 64800 nM
- GI50 [49]: > 100000 nM
- TGI [49]: > 100000 nM
- GI50 [50]: > 100000 nM
- TGI [50]: > 100000 nM
